Data on one compound can be found in patent US6521568B1, “Plant disease controlling compositions and plant disease controlling method” (Sumitomo Chemical Company, Limited, priority 1999, dated 2003).

Each structure is given as a SMILES string.

The subject of this test is fungi of gray mold of cucumber. As to the kind of experiment: Controlling effect on gray mold of cucumber, foliar spray on potted cucumber plants. Type of test: in vivo, Botrytis cinerea. To be noted: single compound, 5.0 ppm, 10° C. humid for 6 days after inoculation. Here is the method:
Plastic pots were filled with sandy loam and sown with cucumber (Sagamihanjiro), followed by growing in a greenhouse for 12 days. A wettable powder of the Compound (I-j) and a wettable powder of procymidone were separately diluted with water, and these dilutions were tank-mixed, then the tank-mixed dilution of the prescribed concentrations of the Compound (I-j) and procymidone was prepared. Said tank-mixed dilution was sprayed to foliage of said cucumber so as to adhere the dilution sufficiently to the surfaces of its leave. After air-drying, a PDA medium including hyphae of the fungi of gray mold of cucumber was placed on the leave surfaces of said cucumber. After inoculation, the plastic pots were placed under a humid environment of 10° C. for 6 days, and then the controlling effect was examined. […]
At the examination, the following evaluation indices was used. The attack rates were calculated with Scheme 1, and then on the basis of the attack rates, the controlling values were calculated with Scheme 2. […]
The controlling effect, which is expected when treatment is carried out by mixing the given two species of active ingredient compounds, is generally calculated according to the following Colby equation described at Scheme 3. […]

In turn, `CC12CC1(C)C(=O)N(c1cc(Cl)cc(Cl)c1)C2=O` (stereo not shown) [(II), N-(3,5-dichlorophenyl)-1,2-dimethylcyclopropane-1,2-dicarboximide] had an Actual controlling value of 0%.
